{"source": "patent US8283361B2", "about": "(AstraZeneca AB, priority 2008, dated 2012)", "data": [{"molecular_target": "S. aureus GyrB ATPase (Staphylococcus aureus, UniProt P0A0K8)", "sequence (P0A0K8 whole entry)": "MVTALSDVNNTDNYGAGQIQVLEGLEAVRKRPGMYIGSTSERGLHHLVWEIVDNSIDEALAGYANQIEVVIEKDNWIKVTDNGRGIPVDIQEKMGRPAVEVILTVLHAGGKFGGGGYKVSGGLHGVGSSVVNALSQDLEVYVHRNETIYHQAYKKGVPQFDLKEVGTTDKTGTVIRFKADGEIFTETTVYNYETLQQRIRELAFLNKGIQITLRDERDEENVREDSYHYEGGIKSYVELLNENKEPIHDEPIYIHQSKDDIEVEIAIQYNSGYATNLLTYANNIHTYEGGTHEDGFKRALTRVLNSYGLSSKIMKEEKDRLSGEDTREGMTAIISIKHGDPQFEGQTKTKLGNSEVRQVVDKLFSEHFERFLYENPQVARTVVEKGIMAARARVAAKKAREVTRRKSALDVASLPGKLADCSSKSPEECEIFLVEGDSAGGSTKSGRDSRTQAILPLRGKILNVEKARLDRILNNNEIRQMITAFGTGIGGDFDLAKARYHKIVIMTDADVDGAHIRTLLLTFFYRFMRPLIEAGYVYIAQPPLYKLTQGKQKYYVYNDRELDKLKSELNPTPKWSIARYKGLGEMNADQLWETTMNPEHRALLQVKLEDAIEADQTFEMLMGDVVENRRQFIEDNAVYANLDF", "sequence (P0AES4 whole entry, further chain)": "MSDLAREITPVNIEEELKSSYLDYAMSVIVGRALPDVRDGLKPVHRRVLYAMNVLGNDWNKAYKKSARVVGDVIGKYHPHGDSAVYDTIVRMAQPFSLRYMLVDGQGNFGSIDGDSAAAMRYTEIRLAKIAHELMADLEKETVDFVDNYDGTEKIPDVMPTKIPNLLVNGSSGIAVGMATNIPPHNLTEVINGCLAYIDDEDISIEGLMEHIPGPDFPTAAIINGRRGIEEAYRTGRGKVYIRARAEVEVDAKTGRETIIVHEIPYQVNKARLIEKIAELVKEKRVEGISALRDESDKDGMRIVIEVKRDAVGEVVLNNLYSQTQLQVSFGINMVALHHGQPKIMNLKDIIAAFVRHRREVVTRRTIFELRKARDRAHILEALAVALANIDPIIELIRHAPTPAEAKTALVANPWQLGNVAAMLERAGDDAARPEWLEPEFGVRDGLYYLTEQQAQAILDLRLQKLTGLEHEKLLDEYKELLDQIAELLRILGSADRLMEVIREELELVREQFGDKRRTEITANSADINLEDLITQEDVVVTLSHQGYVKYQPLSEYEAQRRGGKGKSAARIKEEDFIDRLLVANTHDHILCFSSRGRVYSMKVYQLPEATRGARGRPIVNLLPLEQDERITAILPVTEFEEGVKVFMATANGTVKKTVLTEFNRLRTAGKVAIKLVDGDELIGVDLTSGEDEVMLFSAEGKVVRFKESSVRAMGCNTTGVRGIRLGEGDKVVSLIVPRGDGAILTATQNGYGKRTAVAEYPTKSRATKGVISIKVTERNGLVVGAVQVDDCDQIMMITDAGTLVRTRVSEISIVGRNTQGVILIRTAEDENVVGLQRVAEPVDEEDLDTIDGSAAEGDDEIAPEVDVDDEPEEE", "assay": "biochemical", "settings": "compound at 1 μM; one value per test if tested more than once; read-out: % Inhibition of S. aureus GyrB ATPase", "summary_of_the_method": "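IC50 values derive from 10-point titrations of compound (in DMSO). Phosphate formed from 250 μM ATP was quantified by acidic molybdate/malachite green after quenching.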", "units": {"inhibition at 1 µM": "%"}, "values": [{"compound": "CCCNC(=O)Nc1cc(-c2nc(C(F)(F)F)cs2)c(-c2ccc3c(c2)c(=O)c(C(=O)O)cn3CCOC)cn1", "note": "[Example 191, 1-(2-methoxyethyl)-4-oxo-6-(6-(3-propylureido)-4-(4-(trifluoromethyl)thiazol-2-yl)pyridin-3-yl)-1,4-dihydroquinoline-3-carboxylic acid]", "inhibition at 1 µM": 94}, {"compound": "CCCNC(=O)Nc1cc(-c2nc(C(F)(F)F)cs2)c(-c2ccc3c(c2)c(=O)c(C(=O)O)cn3C2CCOCC2)cn1", "note": "[Example 192, 4-oxo-6-(6-(3-propylureido)-4-(4-(trifluoromethyl)thiazol-2-yl)pyridin-3-yl)-1-(tetrahydro-2H-pyran-4-yl)-1,4-dihydroquinoline-3-carboxylic acid]", "inhibition at 1 µM": 92}, {"compound": "CCCNC(=O)Nc1cc(-c2nc(C(F)(F)F)cs2)c(-c2ccc3c(c2)c(=O)c(C(=O)O)cn3CCN2CCOCC2)cn1", "note": "[Example 193, 1-(2-morpholinoethyl)-4-oxo-6-(6-(3-propylureido)-4-(4-(trifluoromethyl)thiazol-2-yl)pyridin-3-yl)-1,4-dihydroquinoline-3-carboxylic acid]", "inhibition at 1 µM": 93}, {"compound": "COCCn1cc(C(=O)O)c(=O)c2cc(-c3cnc(NC(=O)NC(C)C)cc3-c3nc(C(F)(F)F)cs3)ccc21", "note": "[Example 194, 6-(6-(3-isopropylureido)-4-(4-(trifluoromethyl)thiazol-2-yl)pyridin-3-yl)-1-(2-methoxyethyl)-4-oxo-1,4-dihydroquinoline-3-carboxylic acid]", "inhibition at 1 µM": 93}, {"compound": "CC(C)NC(=O)Nc1cc(-c2nc(C(F)(F)F)cs2)c(-c2ccc3c(c2)c(=O)c(C(=O)O)cn3CCN2CCOCC2)cn1", "note": "[Example 195, 6-(6-(3-isopropylureido)-4-(4-(trifluoromethyl)thiazol-2-yl)pyridin-3-yl)-1-(2-morpholinoethyl)-4-oxo-1,4-dihydroquinoline-3-carboxylic acid]", "inhibition at 1 µM": 98}, {"compound": "CC(C)NC(=O)Nc1cc(-c2nc(C(F)(F)F)cs2)c(-c2ccc3c(c2)c(=O)c(C(=O)O)cn3CCC2CCOCC2)cn1", "note": "[Example 197, 7-(6-(3-isopropylureido)-4-(4-(trifluoromethyl)thiazol-2-yl)pyridin-3-yl)-4-oxo-1-(2-(tetrahydro-2H-pyran-4-yl)ethyl)-1,4-dihydroquinoline-3-carboxylate]", "inhibition at 1 µM": 116}, {"compound": "CCCNC(=O)Nc1cc(-c2nc(C(F)(F)F)cs2)c(-c2ccc3c(c2)c(=O)c(C(=O)O)cn3CCC2CCN(C)CC2)cn1", "note": "[Example 198, 1-(2-(1-methylpiperidin-4-yl)ethyl)-4-oxo-6-(6-(3-propylureido)-4-(4-(trifluoromethyl)thiazol-2-yl)pyridin-3-yl)-1,4-dihydroquinoline-3-carboxylic acid]", "inhibition at 1 µM": 108}, {"compound": "CC(C)NC(=O)Nc1cc(-c2nc(C(F)(F)F)cs2)c(-c2ccc3c(c2)c(=O)c(C(=O)O)cn3C2CCOCC2)cn1", "note": "[Example 199, 6-(6-(3-isopropylureido)-4-(4-(trifluoromethyl)thiazol-2-yl)pyridin-3-yl)-4-oxo-1-(tetrahydro-2H-pyran-4-yl)-1,4-dihydroquinoline-3-carboxylic acid]", "inhibition at 1 µM": 103}, {"compound": "CCCNC(=O)Nc1cc(-c2nc(C(F)(F)F)cs2)c(-c2ccc3c(c2)c(=O)c(C(=O)O)cn3CCC2CCOCC2)cn1", "note": "[Example 200, 4-oxo-6-(6-(3-propylureido)-4-(4-(trifluoromethyl)thiazol-2-yl)pyridin-3-yl)-1-(2-(tetrahydro-2H-pyran-4-yl)ethyl)-1,4-dihydroquinoline-3-carboxylic acid]", "inhibition at 1 µM": 111}, {"compound": "CC(C)NC(=O)Nc1cc(-c2nc(C(F)(F)F)cs2)c(-c2ccc3c(c2)c(=O)c(C(=O)O)cn3CCC2CCN(C)CC2)cn1", "note": "[Example 202, 6-(6-(3-isopropylureido)-4-(4-(trifluoromethyl)thiazol-2-yl)pyridin-3-yl)-1-(2-(1-methylpiperidin-4-yl)ethyl)-4-oxo-1,4-dihydroquinoline-3-carboxylic acid]", "inhibition at 1 µM": 103}, {"compound": "CCCNC(=O)Nc1cc(-c2nc(C(F)(F)F)cs2)c(-c2ccc3c(c2)c(=O)c(C(=O)NCCO)cn3CCN(C)C)cn1", "note": "[Example 203, 1-(2-(dimethylamino)ethyl)-N-(2-hydroxyethyl)-4-oxo-6-(6-(3-propylureido)-4-(4-(trifluoromethyl)thiazol-2-yl)pyridin-3-yl)-1,4-dihydroquinoline-3-carboxamide]", "inhibition at 1 µM": 87}, {"compound": "CCCNC(=O)Nc1cc(-c2nc(C(F)(F)F)cs2)c(-c2ccc3c(c2)c(=O)c(C(=O)NCCO)cn3CCN2CCOCC2)cn1", "note": "[Example 205, N-(2-hydroxyethyl)-1-(2-morpholinoethyl)-4-oxo-6-(6-(3-propylureido)-4-(4-(trifluoromethyl)thiazol-2-yl)pyridin-3-yl)-1,4-dihydroquinoline-3-carboxamide]", "inhibition at 1 µM": 94}, {"compound": "CCCNC(=O)Nc1cc(-c2nc(C(F)(F)F)cs2)c(-c2ccc3c(c2)c(=O)c(C(=O)NCCO)cn3C2CCOCC2)cn1", "note": "[Example 206, N-(2-hydroxyethyl)-4-oxo-6-(6-(3-propylureido)-4-(4-(trifluoromethyl)thiazol-2-yl)pyridin-3-yl)-1-(tetrahydro-2H-pyran-4-yl)-1,4-dihydroquinoline-3-carboxamide]", "inhibition at 1 µM": 92}, {"compound": "CCCNC(=O)Nc1cc(-c2nc(C(F)(F)F)cs2)c(-c2ccc3c(c2)c(=O)c(C(=O)NCCO)cn3CCOC)cn1", "note": "[Example 207, N-(2-hydroxyethyl)-1-(2-methoxyethyl)-4-oxo-6-(6-(3-propylureido)-4-(4-(trifluoromethyl)thiazol-2-yl)pyridin-3-yl)-1,4-dihydroquinoline-3-carboxamide]", "inhibition at 1 µM": 93}, {"compound": "COCCn1cc(C(=O)NCCO)c(=O)c2cc(-c3cnc(NC(=O)NC(C)C)cc3-c3nc(C(F)(F)F)cs3)ccc21", "note": "[Example 208, N-(2-hydroxyethyl)-6-(6-(3-isopropylureido)-4-(4-(trifluoromethyl)thiazol-2-yl)pyridin-3-yl)-1-(2-methoxyethyl)-4-oxo-1,4-dihydroquinoline-3-carboxamide]", "inhibition at 1 µM": 97}, {"compound": "CC(C)NC(=O)Nc1cc(-c2nc(C(F)(F)F)cs2)c(-c2ccc3c(c2)c(=O)c(C(=O)NCCO)cn3C2CCOCC2)cn1", "note": "[Example 210, N-(2-hydroxyethyl)-6-(6-(3-isopropylureido)-4-(4-(trifluoromethyl)thiazol-2-yl)pyridin-3-yl)-4-oxo-1-(tetrahydro-2H-pyran-4-yl)-1,4-dihydroquinoline-3-carboxamide]", "inhibition at 1 µM": 93}, {"compound": "CC(C)NC(=O)Nc1cc(-c2nc(C(F)(F)F)cs2)c(-c2ccc3c(c2)c(=O)c(C(=O)NCCO)cn3CCN2CCN(C)CC2)cn1", "note": "[Example 212]", "inhibition at 1 µM": 94}, {"compound": "CCCNC(=O)Nc1cc(-c2nc(C(F)(F)F)cs2)c(-c2ccc3c(c2)c(=O)c(C(=O)NCCO)cn3CCC2CCN(C)CC2)cn1", "note": "[Example 213]", "inhibition at 1 µM": 94}, {"compound": "CCCNC(=O)Nc1cc(-c2nc(C(F)(F)F)cs2)c(-c2ccc3c(c2)c(=O)c(C(=O)NCCO)cn3CCC2CCOCC2)cn1", "note": "[Example 214, N-(2-hydroxyethyl)-4-oxo-6-(6-(3-propylureido)-4-(4-(trifluoromethyl)thiazol-2-yl)pyridin-3-yl)-1-(2-(tetrahydro-2H-pyran-4-yl)ethyl)-1,4-dihydroquinoline-3-carboxamide]", "inhibition at 1 µM": 118}]}]}
